Data published in ChEMBL document CHEMBL3244280, “Thiazolinone analogues of indolmycin with antiviral and antibacterial activity” (J Med Chem, 1978).
Values after ≈ are worked out from the molar mass of the structure shown. Active and inactive are the calls of the source. The rule behind the calls is not given here.

Key:
Staphylococcus aureus [1] = test: Antibacterial activity against Staphylococcus aureus Oxford; type: functional
Coxsackievirus B1 [2] = test: Antiviral activity against Coxsackievirus B1 infected in human HeLa cells by agar diffusion assay; type: functional
Bacillus subtilis = test: Antibacterial activity against Bacillus subtilis; type: functional
[3] = Cytotoxicity against human HeLa cells by neutral red assay; type: cell-based
Staphylococcus aureus [4] = test: Antibacterial activity against Staphylococcus aureus Russel; type: functional
Streptococcus pyogenes = test: Antibacterial activity against Streptococcus pyogenes CN10; type: functional
Influenza A virus [5] = test: Antiviral activity against influenza A virus NWS/H0N1 infected in BHK cells by agar diffusion assay; type: functional
Staphylococcus aureus [6] = test: Antibacterial activity against Staphylococcus aureus 1517; type: functional
Enterococcus faecalis = test: Antibacterial activity against Streptococcus faecalis I; type: functional
Human alphaherpesvirus 1 = test: Antiviral activity against Herpes simplex virus 1 infected in chick embryo fibroblasts by plaque reduction assay; type: functional, organism-based
Coxsackievirus B1 [7] = test: Antiviral activity against Coxsackievirus B1 infected in human HeLa cells at 1 mg/ml by agar diffusion assay; type: functional; conditions: Enterovirus B; read-out: IZ
Influenza A virus [8] = test: Antiviral activity against influenza A virus NWS/H0N1 infected in BHK cells at 1 mg/ml by agar diffusion assay; type: functional; conditions: read-out: IZ
[9] = Cytotoxicity against BHK cells; type: cell-based, Mesocricetus auratus; conditions: hamster

Compound | MIC (Staphylococcus aureus [1]) [µg/mL] | PDD50 (Coxsackievirus B1 [2]) [µg/mL] | MIC (Bacillus subtilis) [µg/mL] | MCC [3] [µg/mL] | MIC (Staphylococcus aureus [4]) [µg/mL] | MIC (Streptococcus pyogenes) [µg/mL] | PDD50 (Influenza A virus [5]) [µg/mL] | MIC (Staphylococcus aureus [6]) [µg/mL] | MIC (Enterococcus faecalis) [µg/mL] | Activity (Human alphaherpesvirus 1) | zone of inhibition at 1000 µg/mL (Coxsackievirus B1 [7]) [mm] | zone of inhibition at 1000 µg/mL (Influenza A virus [8]) [mm] | MCC [9] [µg/mL]
CNC1=NC(=O)C(Cc2c[nH]c3ccccc23)S1 (racemic) | 20 (≈ 77.1 µM) | 100 | > 200 | > 100 | 20 (≈ 77.1 µM) | 200 (≈ 771 µM) | 10 | 20 (≈ 77.1 µM) | 20 (≈ 77.1 µM) | inactive | 9 | 14 | 30
C[C@H](c1c[nH]c2ccccc12)[C@@H]1SC(NCCO)=NC1=O (racemic) | 200 (≈ 659 µM) | 16 | > 200 | > 100 | 200 (≈ 659 µM) | 200 (≈ 659 µM) | >30 | 200 (≈ 659 µM) | 200 (≈ 659 µM) | inactive | 20 | 8 | 100
CCNC1=NC(=O)[C@H]([C@H](C)c2c[nH]c3ccccc23)S1 (racemic) | 20 (≈ 69.6 µM) | 10 | 200 (≈ 696 µM) | > 100 | 20 (≈ 69.6 µM) | 200 (≈ 696 µM) | 5 | 20 (≈ 69.6 µM) | 20 (≈ 69.6 µM) | inactive | 16 | 34 | 10
